# Results from article PMC9395488, “First-in-human study of IM156, a novel potent biguanide oxidative phosphorylation (OXPHOS) inhibitor, in patients with advanced solid tumors” (Investigational New Drugs, 2022).
# System: patients with advanced solid tumors
# Experiment: First-in-human phase 1 dose-escalation study: safety, DLTs, adverse events
# Assay type: in vivo
# Text: This multicenter first-in-human dose-escalation phase 1 study (clinicaltrials.gov identifier: NCT03272256) was designed to determine the MTD or RP2D and to evaluate the safety and tolerability of IM156. Secondary endpoints included PK characteristics, efficacy assessment (objective response rate [ORR], disease control rate [DCR], duration of response [DoR] and progression-free survival [PFS]). Furthermore, exploratory objectives included identification and profiling of IM156 metabolites, evaluations of exploratory PD markers of IM156, and evaluations of any potential relationship between putative biomarkers and safety/efficacy parameters of IM156. The study was conducted in accordance with Good Clinical Practice, the International Council for Harmonisation, and guidelines governing clinical study conduct and the ethical principles originating from the Declaration of Helsinki. The study was approved by each Institutional Review Board and patients provided written informed consent. Patients were enrolled at three sites in South Korea.
# The initial dose and schedule of IM156 was chosen based on animal toxicology studies. […] IM156 was administered in the fasted state, with no food for at least 2 h before and 1 h after dosing.
# Three DLT-evaluable patients were enrolled at each dose level. If there were no DLTs or other prohibitive adverse events (AEs), the Safety Committee was allowed to recommend escalation to the next highest dose level. If 1 DLT occurred in the first 3 DLT-evaluable patients, enrollment in that cohort was expanded to an additional 3 DLT-evaluable patients; if ≥ 2 DLTs were reported in a cohort, that dose was considered above the MTD.
# Safety was assessed through vital signs, weight, laboratory assessments, physical examinations, electrocardiogram, and reporting of AEs as graded by the National Cancer Institute’s Common Terminology Criteria for Adverse Events v4.03 (NCI-CTCAE).
# DLTs were defined as the following AEs if they were attributed as related to IM156: asymptomatic grade 4 neutropenia lasting for ≥ 5 days; febrile neutropenia, regardless of grade; grade 4 thrombocytopenia or grade 3 thrombocytopenia with bleeding; any grade ≥ 3 non-hematologic AE (except grade 3 hypertension and grade 3 nausea, vomiting or diarrhea for which proper measures for prevention and treatment were not implemented, and alopecia); blood lactate levels > 5 mmol; grade ≥ 2 AE prohibiting dosing of IM156 for ≥ 21 continuous days except for alterations in serum calcium or phosphorus levels. The safety analysis includes all patients who received at least one dose of study drug.
# The safety population was defined as all patients who received at least one dose of IM156. The PK population was not defined in the protocol but included all patients with sufficient PK data to perform adequate PK modeling. The efficacy population included all patients who underwent at least one tumor imaging assessment while receiving IM156. Safety was assessed using descriptive statistics (e.g., DLTs, AEs, laboratory tests, physical examination, 12-lead ECG). The incidence and number of events were reported for the DLTs observed in Cycle 1 per dose group. […] Adverse events and TRAEs were standardized with the System Organ Class and the Preferred Term using the Medical Dictionary for Regulatory Activities v23.0. In addition, TEAEs, serious adverse events (SAEs), TEAE severity, and TEAEs leading to withdrawal were presented by dose group. Efficacy data were to be presented by Waterfall and Swim Lane plots. Time to event endpoints (e.g., DoR, PFS) were determined using Kaplan–Meier estimations with the median value for each endpoint summarized.
# [1] = all dose level/grade cells not in own entries
compound,measurement,setting,value
NC(=Nc1ccc(OC(F)(F)F)cc1)N=C(N)N1CCCC1 [IM156],"TEAE Diarrhoea, grade 2","Total, all dose levels",3
same,"TEAE Dysesthesia, grade 1","Total, all dose levels",1
same,"TEAE Fatigue, grade 1","Total, all dose levels",2
same,"TEAE Fatigue, grade 2","Total, all dose levels",4
same,"TEAE Gamma-glutamyltransferase increased, grade 2","Total, all dose levels",1
same,"TEAE Gamma-glutamyltransferase increased, grade 3","Total, all dose levels",1
same,"TEAE Gastritis, grade 1","Total, all dose levels",1
same,"TEAE Gastrointestinal pain, grade 1","Total, all dose levels",1
same,"TEAE Gastrointestinal pain, grade 2","Total, all dose levels",1
same,"TEAE Headache, grade 1","Total, all dose levels",1
same,"TEAE Headache, grade 2","Total, all dose levels",1
same,"TEAE Hemoptysis, grade 2","Total, all dose levels",1
same,"TEAE Hyperkalaemia, grade 3","Total, all dose levels",1
same,"TEAE Hypoalbuminaemia, grade 2","Total, all dose levels",2
same,"TEAE Hypocalcemia, grade 2","Total, all dose levels",1
same,"TEAE Ileus, grade 2","Total, all dose levels",1
same,"TEAE Ileus, grade 3","Total, all dose levels",1
same,"TEAE Influenza like illness, grade 1","Total, all dose levels",1
same,"TEAE Large intestinal obstruction, grade 2","Total, all dose levels",1
same,"TEAE Lethargy, grade 2","Total, all dose levels",1
same,"TEAE Nausea, grade 1","Total, all dose levels",8
same,"TEAE Nausea, grade 2","Total, all dose levels",5
same,"TEAE Nausea, grade 3","Total, all dose levels",3
same,"TEAE Neutrophil count decreased, grade 4","Total, all dose levels",1
same,"TEAE Obstruction gastric, grade 3","Total, all dose levels",1
same,"TEAE Oedema peripheral, grade 2","Total, all dose levels",1
same,"TEAE Oropharyngeal pain, grade 1","Total, all dose levels",1
same,"TEAE Pain, grade 2","Total, all dose levels",1
same,"TEAE Peripheral sensory neuropathy, grade 1","Total, all dose levels",1
same,"TEAE Platelet count decreased, grade 1","Total, all dose levels",1
same,"TEAE Pleural effusion, grade 2","Total, all dose levels",1
same,"TEAE Proctalgia, grade 2","Total, all dose levels",1
same,"TEAE Pyrexia, grade 1","Total, all dose levels",5
same,"TEAE Pyrexia, grade 2","Total, all dose levels",1
same,"TEAE Toothache, grade 1","Total, all dose levels",1
same,"TEAE Vomiting, grade 1","Total, all dose levels",10
same,"TEAE Vomiting, grade 2","Total, all dose levels",1
same,"TEAE Abdominal discomfort, dose level/grade cells without event",[1],0
same,"TEAE Abdominal distension, dose level/grade cells without event",[1],0
same,"TEAE Abdominal pain upper, dose level/grade cells without event",[1],0
same,"TEAE Abdominal pain, dose level/grade cells without event",[1],0
same,"TEAE Akathisia, dose level/grade cells without event",[1],0
same,"TEAE Alanine aminotransferase increased, dose level/grade cells without event",[1],0
same,"TEAE Ascites, dose level/grade cells without event",[1],0
same,"TEAE Aspartate aminotransferase increased, dose level/grade cells without event",[1],0
same,"TEAE Asthenia, dose level/grade cells without event",[1],0
same,"TEAE Blood alkaline phosphatase increased, dose level/grade cells without event",[1],0
same,"TEAE Blood creatinine increased, dose level/grade cells without event",[1],0
same,"TEAE Blood lactic acid increased, dose level/grade cells without event",[1],0
same,"TEAE Chest pain, dose level/grade cells without event",[1],0
same,"TEAE Constipation, dose level/grade cells without event",[1],0
same,"TEAE Cough, dose level/grade cells without event",[1],0
same,"TEAE Decreased appetite, dose level/grade cells without event",[1],0
same,"TEAE Diarrhoea, dose level/grade cells without event",[1],0
same,"TEAE Dysesthesia, dose level/grade cells without event",[1],0
same,"TEAE Fatigue, dose level/grade cells without event",[1],0
same,"TEAE Gamma-glutamyltransferase increased, dose level/grade cells without event",[1],0
same,"TEAE Gastritis, dose level/grade cells without event",[1],0
same,"TEAE Gastrointestinal pain, dose level/grade cells without event",[1],0
same,"TEAE Headache, dose level/grade cells without event",[1],0
same,"TEAE Hemoptysis, dose level/grade cells without event",[1],0
same,"TEAE Hyperkalaemia, dose level/grade cells without event",[1],0
same,"TEAE Hypoalbuminaemia, dose level/grade cells without event",[1],0
same,"TEAE Hypocalcemia, dose level/grade cells without event",[1],0
same,"TEAE Ileus, dose level/grade cells without event",[1],0
same,"TEAE Influenza like illness, dose level/grade cells without event",[1],0
same,"TEAE Large intestinal obstruction, dose level/grade cells without event",[1],0
same,"TEAE Lethargy, dose level/grade cells without event",[1],0
same,"TEAE Nausea, dose level/grade cells without event",[1],0
same,"TEAE Neutrophil count decreased, dose level/grade cells without event",[1],0
same,"TEAE Obstruction gastric, dose level/grade cells without event",[1],0
same,"TEAE Oedema peripheral, dose level/grade cells without event",[1],0
same,"TEAE Oropharyngeal pain, dose level/grade cells without event",[1],0
same,"TEAE Pain, dose level/grade cells without event",[1],0
same,"TEAE Peripheral sensory neuropathy, dose level/grade cells without event",[1],0
same,"TEAE Platelet count decreased, dose level/grade cells without event",[1],0
same,"TEAE Pleural effusion, dose level/grade cells without event",[1],0
same,"TEAE Proctalgia, dose level/grade cells without event",[1],0
same,"TEAE Pyrexia, dose level/grade cells without event",[1],0
same,"TEAE Toothache, dose level/grade cells without event",[1],0
same,"TEAE Vomiting, dose level/grade cells without event",[1],0
same,"days of interruption due to a TEAE, range",all doses,2 to 11 days
same,median number of days of interruption due to a TEAE,all doses,3 days
same,number of SAEs reported,all doses,Nine
same,number of laboratory AEs,all doses,28
same,"Grade 3 nausea (TRAE), percent of patients","all doses, N = 22",14%
same,"TRAE abdominal pain, percent of patients","all doses, N = 22",9%
same,"TRAE constipation, percent of patients","all doses, N = 22",9%
same,"TRAE diarrhea, percent of patients","all doses, N = 22",46%
same,"TRAE emesis (vomiting), percent of patients","all doses, N = 22",41%
same,"TRAE fatigue, percent of patients","all doses, N = 22",18%
same,"TRAE nausea, percent of patients","all doses, N = 22",68%
same,"TRAEs grade 3 or higher, percent of patients","all doses, N = 22",14%
same,patients in whom nausea and emesis required anti-emetic medications,"all doses, N = 22",14 patients
same,"patients in whom nausea and emesis required anti-emetic medications, percent","all doses, N = 22",64%
same,patients with SAEs,"all doses, N = 22",8 patients
same,patients with TRAEs,"all doses, N = 22",19 patients
same,"patients with TRAEs, percent","all doses, N = 22",86%
same,patients with a TEAE leading to dose interruption,"all doses, N = 22",7 patients
same,"patients with a TEAE leading to dose interruption, percent","all doses, N = 22",32%
same,patients with at least one TEAE,"all doses, N = 22",22 patients
same,"patients with at least one TEAE, percent","all doses, N = 22",100%
same,patients with gastrointestinal (GI) TRAEs,"all doses, N = 22",18 patients
same,"patients with gastrointestinal (GI) TRAEs, percent","all doses, N = 22",82%
same,total number of TEAEs reported,"all doses, N = 22",146
same,"TRAE blood lactate (lactic acid) increased, percent of patients","all doses, N = 22, Grade 1",9%
same,Dose-limiting toxicity,"dose level 1, 100 mg QOD oral, 3 patients",0
same,Dose-limiting toxicity,"dose level 2, 200 mg QOD oral, 3 patients",0
same,Dose-limiting toxicity,"dose level 3, 400 mg QOD oral, 3 patients",0
same,Dose-limiting toxicity,"dose level 4, 800 mg QOD oral, 3 patients",0
same,Dose-limiting toxicity,"dose level 5, 1,200 mg QOD oral, 3 patients",0
same,Dose-limiting toxicity,"dose level 6, 800 mg QD oral, 3 patients",0
same,Dose-limiting toxicity,"dose level 7, 1,200 mg QD oral, 4 patients",0
same,SAEs attributed to IM156,"grade 3 nausea at 1,200 mg QOD",1
same,laboratory AEs considered not related to IM156,of 28 laboratory AEs,26
same,"laboratory AEs considered not related to IM156, percent",of 28 laboratory AEs,93%
same,recommended phase 2 dose (RP2D),"oral, QD",800 mg
same,maximum tolerated dose (MTD),"per protocol, 100 to 1,200 mg QOD or QD",not reached
